# Laboratory results: patent publication US10064837B1, “Abietic acid derivatives as anti-tumor agents” (KING SAUD UNIVERSITY, priority 2018, dated 2018)
# What was measured:
# [1] = biological target: rat prostate testosterone 5α-reductase; assay: In vitro 5α-reductase inhibitor enzymatic assay (rat ventral prostate homogenate, [3H]testosterone conversion); format: biochemical; conditions: pH 6.5, 37° C., 30 min, mean of three separate experiments
# Procedure: A homogenate of the ventral prostate gland of male Sprague-Dawley rats was prepared, and testosterone 5α-reductase inhibition was measured using the methods previously reported in Iwai, A., et al., “Spectrophotometric Method for the Assay of Steroid 5α-reductase activity of rat liver and prostate microsomes”, Analytical Sciences 2013, 29: 455-459. Both the type 1 and the type 2 isozymes are present in the ventral prostate of the rat. In the assay, rat prostate extracts were used in a neutral pH buffer, and both isozymes were assayed.
# The ventral prostate glands were excised and minced with a pair of scissors. The 20 w/v % homogenates were prepared with a glass-glass homogenizer in medium A (sucrose 0.32 M, dithiothreitol 0.1 mM, and sodium phosphate 20 mM, pH 6.5). The homogenate was filtered with surgical gauze and then centrifuged at 3000×g for 10 min. The pellets were suspended in medium A at a protein concentration of 20 mg/ml by triturating sequentially through an 18-gauge needle, and then a 20-gauge needle.
# To 40 μl of the enzyme suspension, 10 μl of test sample in ethanol or ethanol alone and a mixture containing 0.525 ml of reaction solution consisting of dithiothreitol 1 mM, sodium phosphate 40 mM, pH 6.5, NADPH 5×10^−5 M, and [1,2,6,7^−3H]testosterone 2.2×10^−9 M were added. The assay mixture was incubated at 37° C. for 30 min. The reaction was stopped by the addition of 1 ml of ethyl acetate, and 50 μl of the upper phase was separated on a silica gel plate in the developing solvent system of ethyl acetate/cyclohexane, at a ratio of 1:1. The zones corresponding to the testosterone and 5α-dihydrotestosterone were cut into fragments. Each fragment was added to 5 ml of Aquasol-2 and counted with a liquid scintillation counter to determine ^3H radioactivity.
# The inhibitory activity of each test sample was calculated as follows: Rate of enzyme reaction (R,%)=D/(T+D)×100 Inhibitory activity (%)=(1−Rsample/Rcontrol)×100 where D and T are the ^3H radioactivity recovered. The results are reported in Table 1, and reflected in FIG. 2.
# [2] = tested on: 5α-reductase; assay: In vivo 5α-reductase inhibitor biological assay; parameters: species or system male Sprague-Dawley rats; conditions: rats treated subcutaneously from postnatal third day until seven weeks; mean of three separate experiments
# [3] = tested on: prostate cancer cell line LNCaP; assay: Anti-prostate cancer screening, anti-androgenic bioassay (AR transactivation, MMTV-luciferase) in LNCaP cells; format: cell-based, Human; conditions: 1 nM DHT, 24 h, mean of three separate experiments
# Procedure: (§1) Human prostate cancer cell lines LNCaP and PC-3 were maintained in RPMI 1640 medium and DMEM medium, respectively. Both media were supplemented with penicillin (25 units/mL), streptomycin (25 μg/mL), and 10% fetal calf serum. For the androgen receptor transactivation assay, an androgen-dependent reporter gene transcription test was employed as the primary screening for potential anti-androgen identification. This assay was first performed in LNCaP cells, which express a clinically relevant mutant AR.
# (§2) Cells were plated in 24-well tissue culture dishes for 24 hours (PC-3 cells) or 48 hours (LNCaP cells) prior to transfection. Subsequently, LNCaP cells were transfected with a reporter gene, MMTV-luciferase, which contains MMTV-LTR promoter and androgen receptor binding element, and PRL-SV40, which served as an internal control for transfection efficiency. PC-3 cells were transfected with a wild type AR expression plasmid, pSG5AR, in addition to the aforementioned MMTV-luciferase reporter gene and PRL-SV40 internal control. SuperFect (Qiagen, Chatsworth, Calif.) was employed as the transfection reagent following manufacturer's recommendations.
# (§3) At the end of a 5-hour transfection period, the medium was changed to DMEM or RPMI 1640 medium, supplemented with 10% charcoal dextran-stripped (that is, androgen-depleted) serum. After 24 h, the cells were treated with 1 nM of DHT and/or test compounds at the designated concentration for another 24 h. The cells were harvested for luciferase activity assay using the Dual Luciferase Assay System (Promega, Madison, Wis.).
# The derived data were expressed as relative luciferase activity normalized to the internal luciferase control. Cells cultured in medium containing DHT (androgen), as a positive control, induced a marked reporter gene expression. […] The results are reported in Table 3, and reflected in FIGS. 4 and 5.
# [4] = tested on: prostate cancer cell line PC3; assay: Anti-prostate cancer screening, anti-androgenic bioassay (wild type AR transactivation, MMTV-luciferase) in PC-3 cells; format: cell-based, Human; conditions: PC-3 cells transfected with wild type AR, 1 nM DHT, 24 h, mean of three separate experiments
# Procedure: as §1
# Wild type AR transactivation assay was performed in PC-3 host cells, which lack an endogenous, functional AR.
# as §2, §3
# The derived data were expressed as relative luciferase activity normalized to the internal luciferase control. […] The results are reported in Table 3, and reflected in FIGS. 4 and 5.
SMILES,IC50 [1],ED50 of the 5α-reductase inhibitors activities [2],IC50 ([3]; Homo sapiens),IC50 ([4]; Homo sapiens),melting point,IC50 [3],IC50 [4]
CC(C)C1=CC2=CC[C@@H]3[C@](C)(CCC[C@@]3(C)C(=O)O)[C@H]2CC1 [Abietic acid],56000 ± 22000 nM,8800 ± 87 nM,,,,,
"CC(C)(C#N)c1cc(Cn2cncn2)cc(C(C)(C)C#N)c1 [Anastrozole, anastrozole, reference compound]",11230 ± 23 nM,1090 ± 3.4 nM,,,,,
"CC(C)C1=CC2=CCC3C4(C)CC(CC3(C)C2CC1)OC4=O (centres unmarked) [Compound 2, Abieta-7, 13-dien-18-oic acid (18→2) lactone]",0.34 ± 0.06 nM,64 ± 0.76 nM,4.22 ± 0.03 nM,45.7 ± 1.09 nM,227 to 229 °C,,
"CC(C)C1=CC2=CC3OC(=O)C4(C)CCCC(C)(C2CC1)C34 (centres unmarked) [Compound 3, Abieta-7,13-dien-18-oic acid (18→6) lactone]",0.91 ± 0.07 nM,90 ± 0.88 nM,9.08 ± 0.08 nM,112 ± 3.7 nM,301 to 303 °C,,
"CC(C)C1=CC2=CCC3C(C)(C(=O)Oc4ccccc4)CC(O)CC3(C)C2CC1 (centres unmarked) [Compound 4a, Phenyl-2-hydroxy-abieta-7,13-dien-18-oate]",0.22 ± 0.03 nM,44 ± 0.65 nM,3.24 ± 0.04 nM,18.2 ± 11 nM,,,
"CC(C)C1=CC2=CCC3C(C)(C(=O)Sc4ccccc4)CC(O)CC3(C)C2CC1 (centres unmarked) [Compound 4b, Phenyl-2-hydroxy-abieta-7,13-dien-18-thioate]",0.29 ± 0.01 nM,45 ± 0.57 nM,,,,3.58 ± 0.02 nM,26.4 ± 1.8 nM
"CC(C)C1=CC2=CCC3C(C)(C(=O)Nc4ccccc4)CC(O)CC3(C)C2CC1 (centres unmarked) [Compound 4c, Phenyl-2-hydroxy-abieta-7,13-dien-18-carboxamide]",0.19 ± 0.02 nM,38 ± 0.45 nM,2.33 ± 0.05 nM,11.14 ± 0.09 nM,,,
"CC(C)C1=CC2=CC(O)C3C(C)(C(=O)Oc4ccccc4)CCCC3(C)C2CC1 (centres unmarked) [Compound 5a, Phenyl-6-hydroxy-abieta-7,13-dien-18-oate]",0.74 ± 0.06 nM,76 ± 0.89 nM,6.21 ± 0.04 nM,71.2 ± 3.6 nM,,,
"CC(C)C1=CC2=CC(O)C3C(C)(C(=O)Sc4ccccc4)CCCC3(C)C2CC1 (centres unmarked) [Compound 5b, Phenyl-6-hydroxy-abieta-7,13-dien-18-thioate]",0.88 ± 0.07 nM,88 ± 0.89 nM,7.8 ± 0.09 nM,83.5 ± 2.3 nM,,,
"CC(C)C1=CC2=CC(O)C3C(C)(C(=O)Nc4ccccc4)CCCC3(C)C2CC1 (centres unmarked) [Compound 5c, Phenyl-6-hydroxy-abieta-7,13-dien-18-carboxamide]",0.68 ± 0.08 nM,71 ± 0.74 nM,5.78 ± 0.03 nM,66.2 ± 2.3 nM,,,
"CC(C)(C)NC(=O)[C@H]1CC[C@H]2[C@@H]3CC[C@H]4NC(=O)C=C[C@]4(C)[C@H]3CC[C@]12C [Finasteride, finasteride, reference compound]",60 ± 1.2 nM,170 ± 7.9 nM,> 100000 nM,,,,
